Measurements: patent US20250230147A1, “LACTAMS AS CBL-B INHIBITORS” (Genentech, Inc., priority 2021, published 2025)
pIC50: −log10 of the molar value. Where a name gives a salt, the structure may show the parent alone.

Assays:
[1] = molecular target: c-Cbl (Homo sapiens (Human), UniProt P22681); assay: C-Cbl LCK Ub TR-FRET assay (c-cbl Lck HTRF); assay type: biochemical; settings: for (fold-selectivity): C-cbl Lck HTRF IC50 relative to Cbl-b Lck HTRF IC50
In short: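 Detection reagents added, brief spin, 20 min RT. IC50 fit normalized to no-LCK (low) and DMSO (high) controls.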

[2] = molecular target: Cbl-b (Homo sapiens (Human), UniProt Q13191); assay: Cbl-b LCK Ub TR-FRET assay (Cbl-b Lck HTRF); assay type: biochemical
Cbl-b, sequence (Q13191 40-426): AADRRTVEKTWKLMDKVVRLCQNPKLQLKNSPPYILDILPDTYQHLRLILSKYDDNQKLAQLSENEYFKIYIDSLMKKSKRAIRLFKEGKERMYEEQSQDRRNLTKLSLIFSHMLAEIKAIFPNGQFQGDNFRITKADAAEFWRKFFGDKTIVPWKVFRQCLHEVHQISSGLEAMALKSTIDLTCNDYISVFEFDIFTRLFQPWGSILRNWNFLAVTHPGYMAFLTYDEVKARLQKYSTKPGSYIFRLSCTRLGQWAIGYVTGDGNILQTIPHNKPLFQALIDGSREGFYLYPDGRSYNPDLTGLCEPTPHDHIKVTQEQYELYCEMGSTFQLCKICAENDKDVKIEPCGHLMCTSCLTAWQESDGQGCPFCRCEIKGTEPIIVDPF
In short: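 Biotin-Cbl-b preincubated with compound (10-point 3-fold series) 60 min, then His-LCK with 1 mM ATP (2× mixture) added for 90 min at room temperature. Ubiquitination detected by TR-FRET using HA-ubiquitin/UBE2D2 adduct, anti-HA-D2 and streptavidin-Eu; IC50 normalised to no-LCK and DMSO controls.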

c-Cbl, sequence (P22681 47-435): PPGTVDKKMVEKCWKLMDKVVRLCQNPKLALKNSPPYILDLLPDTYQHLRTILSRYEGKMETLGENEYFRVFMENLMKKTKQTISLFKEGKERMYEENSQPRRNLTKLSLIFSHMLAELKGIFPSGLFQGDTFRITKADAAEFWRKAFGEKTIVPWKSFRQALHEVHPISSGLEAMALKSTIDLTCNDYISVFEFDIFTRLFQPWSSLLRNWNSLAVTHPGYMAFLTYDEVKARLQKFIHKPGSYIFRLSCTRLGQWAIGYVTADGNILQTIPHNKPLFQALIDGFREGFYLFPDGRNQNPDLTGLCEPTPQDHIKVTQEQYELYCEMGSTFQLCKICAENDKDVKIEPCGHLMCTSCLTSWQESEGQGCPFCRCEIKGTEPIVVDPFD

Row | Structure (SMILES) | pIC50 [1] | (fold-selectivity) [1] | pIC50 [2]
1 | CO[C@H]1CCN(Cc2cc3c(c(C(F)(F)F)c2)CN(c2cccc(C4([C@H](F)c5nncn5C)COC4)c2)C3=O)C1 [Compound 132, 2-(3-(3-((S)-fluoro(4-methyl-4H-1,2,4-triazol-3-yl)methyl)oxetan-3-yl)phenyl)-6-(((S)-3-methoxypyrrolidin-1-yl)methyl)-4-(trifluoromethyl)isoindolin-1-one] | 6.33 | 2.1x | 6.64
2 | Cn1cnnc1[C@H](F)C1(c2cccc(N3Cc4c(cc(CN)cc4C(F)(F)F)C3=O)c2)CCC1 [Compound 386, (R)-6-(aminomethyl)-2-(3-(1-(fluoro(4-methyl-4H-1,2,4-triazol-3-yl)methyl)cyclobutyl)phenyl)-4-(trifluoromethyl)isoindolin-1-one] | 7.51 | (0.98x) | 7.49
3 | Cn1cnnc1CC1(c2cccc(N3Cc4c(cc(CN5CC(C)(F)C5)cc4C(F)(F)F)C3=O)c2)CC(F)(F)C1 [Compound 107, 2-(3-(3,3-difluoro-1-((4-methyl-4H-1,2,4-triazol-3-yl)methyl)cyclobutyl)phenyl)-6-((3-fluoro-3-methylazetidin-1-yl)methyl)-4-(trifluoromethyl)isoindolin-1-one] | 7.72 | 1.0x | 7.74
4 | CC(C)[C@@H]1CN(Cc2cc3c(c(C(F)(F)F)c2)CN(c2cccc(C4([C@@H](F)c5nncn5C)COC4)c2)C3=O)CCN1C [Compound 218, 2-(3-(3-((R)-fluoro(4-methyl-4H-1,2,4-triazol-3-yl)methyl)oxetan-3-yl)phenyl)-6-(((R)-3-isopropyl-4-methylpiperazin-1-yl)methyl)-4-(trifluoromethyl)isoindolin-1-one] | 7.54 | 1.3x | 7.66
5 | CCc1cc(C2(Cc3nncn3C)CCC2)cc(N2Cc3c(cc(CNC4(C)CCC4)cc3C(F)(F)F)C2=O)n1 [Compound 361, 2-(6-ethyl-4-(1-((4-methyl-4H-1,2,4-triazol-3-yl)methyl)cyclobutyl)pyridin-2-yl)-6-(((1-methylcyclobutyl)amino)methyl)-4-(trifluoromethyl)isoindolin-1-one] | 8.02 | (0.76x) | 7.89
6 | CC(C)CNc1cc(C2(Cc3nncn3C)CCC2)cc(N2Cc3c(cc(CNC4(C)CCC4)cc3C(F)(F)F)C2=O)n1 [Compound 348, 2-(6-(isobutylamino)-4-(1-((4-methyl-4H-1,2,4-triazol-3-yl)methyl)cyclobutyl)pyridin-2-yl)-6-(((1-methylcyclobutyl)amino)methyl)-4-(trifluoromethyl)isoindolin-1-one] | 7.89 | (1.0x) | 7.89
7 | CCOc1cc([C@H](C)Cc2nncn2C)cc(N2Cc3c(cc(CN4CCC5(CC5)C4)cc3C(F)(F)F)C2=O)n1 [Compound 56, (R)-6-((5-azaspiro[2.4]heptan-5-yl)methyl)-2-(6-ethoxy-4-(1-(4-methyl-4H-1,2,4-triazol-3-yl)propan-2-yl)pyridin-2-yl)-4-(trifluoromethyl)isoindolin-1-one formate] | 7.66 | – | 7.80
8 | Cn1cnnc1[C@@H](F)C1(c2cccc(N3Cc4c(cc(CN5CCC[C@@H]5CO)cc4C(F)(F)F)C3=O)c2)COC1 [Compound 148, 2-(3-(3-((S)-fluoro(4-methyl-4H-1,2,4-triazol-3-yl)methyl)oxetan-3-yl)phenyl)-6-(((R)-2-(hydroxymethyl)pyrrolidin-1-yl)methyl)-4-(trifluoromethyl)isoindolin-1-one] | 6.14 | 1.1x | 6.16
9 | Cn1cnnc1CC1(c2cc(Cc3ccccc3)nc(N3Cc4c(cc(CNC5(C)CCC5)cc4C(F)(F)F)C3=O)c2)CCC1 [Compound 241, 2-(6-benzyl-4-(1-((4-methyl-4H-1,2,4-triazol-3-yl)methyl)cyclo-butyl)pyridin-2-yl)-6-(((1-methylcyclobutyl)amino)methyl)-4-(trifluoromethyl)isoindolin-1-one] | 7.80 | (0.77x) | 7.68
